Read-outs that look alike come from different tables or passages of the source.
Key:
[1] = test system: wheat leaf blight-causing microorganisms; assay: Anti-bacterial effect on wheat leaf blight-causing microorganisms (PDA plate, mycelial growth inhibition); type: cell-based, Septoria tritici; conditions: 1.25 mg/L in PDA plate medium, 25° C., 14 days
Protocol: In Test Examples, an anti-bacterial effect of a compound in accordance with the present invention on the wheat leaf blight-causing microorganisms was tested, and was compared with the anti-bacterial effect of a comparative compound (1).
A dimethyl sulfoxide solution (0.6 ml) containing a compound in accordance with the present invention was added to a PDA medium (potato dextrose agar medium) (60 ml) having about 60° C., and the resultant mixture was mixed thoroughly in a 100-ml conical flask. The mixture was poured into a dish, and was solidified. […]
On the other hand, a subject microorganism previously cultured on a plate medium was cut out with use of a cork borer whose diameter was 4 mm, and the wheat leaf blight-causing microorganism on the plate medium thus cut out was inoculated to the chemical-containing plate medium described above. After such inoculation, the chemical-containing plate medium was incubated at 25° C. for 14 days, and then diameters of its flora were measured. A % mycelial growth inhibition was calculated with use of the formula. R=100(dc−dt)/dc (where R=% mycelial extension inhibition, dc=flora diameter in untreated plate, dt=flora diameter in treated plate)
The results obtained as described above were evaluated on a five-point scale according to the following criteria.
• 5: % Mycerial growth inhibition of 80% or higher • 4: % Mycerial growth inhibition of less than 80 to 60% or higher • 3: % Mycerial growth inhibition of less than 60 to 40% or higher • 2: % Mycerial growth inhibition of less than 40 to 20% or higher • 1: % Mycerial growth inhibition of less than 20%

[2] = test system: wheat-brown-rust-causing microorganisms; assay: Controlling effect on wheat brown rust (spray, pot test); type: in vivo, Puccinia recondita; conditions: 1 mg/L sprayed at 1,000 L/ha, wheat NORIN No. 61, 9 to 14 days after inoculation
Protocol: Onto a wheat plant (cultivar: NORIN No. 61) grown to the two-leaf stage with use of a square plastic pot (6 cm×6 cm), a wettable formulation such as Formulation Example 1 which was diluted and suspended in water at a concentration of 1 mg/L was sprayed at a rate of 1,000 L/ha. The sprayed leaves were air-dried, and inoculated with spore suspension of wheat-brown-rust-causing microorganisms (adjusted at 200 spores/vision, […] was added at 60 ppm) by spraying, and kept at 25° C. and a high humidity for 48 hours. Thereafter, the plant was kept in a greenhouse. Nine to fourteen days after inoculation, the wheat brown rust lesion degree was evaluated. The protective value was calculated by the following equation. Protective value (%)=(1-mean lesion degree in sprayed plot/mean lesion degree in unsprayed plot)×100 [table] [table]

[3] = test system: Wheat Septoria nodorum blotch microorganism (Phaeosphaeria nodorum); assay: Anti-bacterial effect on various microorganisms (plate medium), P.n; type: cell-based
[4] = test system: Wheat eye spot (Pseudocercoporella herpotrichoides); assay: Anti-bacterial effect on various microorganisms (plate medium), P.h; type: cell-based
[5] = test system: Wheat fusarium blight (Fusarium graminearum); type: cell-based
[6] = test system: Barley loose smut (Ustilago nuda); assay: Anti-bacterial effect on various microorganisms (plate medium), U.n; type: cell-based
[7] = test system: Rice blast (Pyricularia oryzae); type: cell-based
[8] = test system: Rice bakanae disease (Giberella fujikuroi); assay: Anti-bacterial effect on various microorganisms (plate medium), G.f; type: cell-based
[9] = test system: Alternaria blotch (Alternaria alternata); assay: Anti-bacterial effect on various microorganisms (plate medium), A.m; type: cell-based
[10] = test system: Sclerotinia rot (Sclerotinia sclerotiorum); assay: Anti-bacterial effect on various microorganisms (plate medium), S.s; type: cell-based
[11] = test system: Gray mold (Botritis cinerea); assay: Anti-bacterial effect on various microorganisms (plate medium), B.c; type: cell-based
[12] = test system: Cucumber fusarium wilt (Fusarium oxysporum); assay: Anti-bacterial effect on various microorganisms (plate medium), F.c; type: cell-based
[13] = test system: Barley leaf blotch (Rhynchosporium secalis); assay: Anti-bacterial effect on various microorganisms (plate medium), R. sec; type: cell-based
[14] = test system: Wheat pink snow mold (Microdochium nivale); assay: Anti-bacterial effect on various microorganisms (plate medium), M.n; type: cell-based
[15] = test system: Rice bacterial seeding blight (Rhizopus oryzae); assay: Anti-bacterial effect on various microorganisms (plate medium), R.o; type: cell-based

Row | SMILES | Growth inhibition grade [1] | Protective value [2] | Growth inhibition grade P.n ([3]; 1.25 mg/L) | Growth inhibition grade P.n ([3]; 5 mg/L) | Growth inhibition grade P.h ([4]; 1.25 mg/L) | Growth inhibition grade P.h ([4]; 5 mg/L) | Growth inhibition grade F.g ([5]; 1.25 mg/L) | Growth inhibition grade F.g ([5]; 5 mg/L) | Growth inhibition grade U.n ([6]; 1.25 mg/L) | Growth inhibition grade U.n ([6]; 5 mg/L) | Growth inhibition grade P.o ([7]; 1.25 mg/L) | Growth inhibition grade P.o ([7]; 5 mg/L) | Growth inhibition grade G.f ([8]; 1.25 mg/L) | Growth inhibition grade G.f ([8]; 5 mg/L) | Growth inhibition grade A.m ([9]; 1.25 mg/L) | Growth inhibition grade A.m ([9]; 5 mg/L) | Growth inhibition grade M.n ([14]; 1.25 mg/L) | Growth inhibition grade M.n ([14]; 5 mg/L) | Growth inhibition grade R.o ([15]; 1.25 mg/L) | Growth inhibition grade R.o ([15]; 5 mg/L) | other results
1 | COC[C@]1(CCl)CC[C@@H](Cc2ccccc2)[C@]1(O)Cn1cncn1 (racemic) [Compound I-187, (1RS,2RS,5SR)-5-benzyl-2-chloromethyl-2-methoxymethyl-1H-[1,2,4]triazole-1-ylmethylcyclopentanol] | 5 (% Mycerial growth inhibition of 80% or higher) | 4 (61 to 80) | 4 (% Mycerial growth inhibition of less than 80 to 60% or higher) | 5 (% Mycerial growth inhibition of 80% or higher) | 5 (% Mycerial growth inhibition of 80% or higher) | 5 (% Mycerial growth inhibition of 80% or higher) | 5 (% Mycerial growth inhibition of 80% or higher) | 5 (% Mycerial growth inhibition of 80% or higher) | 5 (% Mycerial growth inhibition of 80% or higher) | 5 (% Mycerial growth inhibition of 80% or higher) | 5 (% Mycerial growth inhibition of 80% or higher) | 5 (% Mycerial growth inhibition of 80% or higher) | 5 (% Mycerial growth inhibition of 80% or higher) | 5 (% Mycerial growth inhibition of 80% or higher) | 4 (% Mycerial growth inhibition of less than 80 to 60% or higher) | 5 (% Mycerial growth inhibition of 80% or higher) | 5 (% Mycerial growth inhibition of 80% or higher) | 5 (% Mycerial growth inhibition of 80% or higher) | 5 (% Mycerial growth inhibition of 80% or higher) | 5 (% Mycerial growth inhibition of 80% or higher) | Growth inhibition grade S.s ([10]; 1.25 mg/L): 5 (% Mycerial growth inhibition of 80% or higher); Growth inhibition grade S.s ([10]; 5 mg/L): 5 (% Mycerial growth inhibition of 80% or higher); Growth inhibition grade B.c ([11]; 1.25 mg/L): 5 (% Mycerial growth inhibition of 80% or higher); Growth inhibition grade B.c ([11]; 5 mg/L): 5 (% Mycerial growth inhibition of 80% or higher); Growth inhibition grade F.c ([12]; 1.25 mg/L): 5 (% Mycerial growth inhibition of 80% or higher); Growth inhibition grade F.c ([12]; 5 mg/L): 5 (% Mycerial growth inhibition of 80% or higher); Growth inhibition grade R. sec ([13]; 1.25 mg/L): 5 (% Mycerial growth inhibition of 80% or higher); Growth inhibition grade R. sec ([13]; 5 mg/L): 5 (% Mycerial growth inhibition of 80% or higher)
2 | CCOC[C@]1(CCl)CC[C@@H](Cc2ccc(F)cc2)[C@]1(O)Cn1cncn1 (racemic) [Compound I-226, (1RS,2RS,5SR)-5-(4-fluorobenzyl)-2-chloromethyl-2-ethoxymethyl-1H-[1,2,4]triazole-1-ylmethylcyclopentanol] | 5 (% Mycerial growth inhibition of 80% or higher) | 4 (61 to 80) | 5 (% Mycerial growth inhibition of 80% or higher) | 5 (% Mycerial growth inhibition of 80% or higher) | 4 (% Mycerial growth inhibition of less than 80 to 60% or higher) | 5 (% Mycerial growth inhibition of 80% or higher) | 5 (% Mycerial growth inhibition of 80% or higher) | 5 (% Mycerial growth inhibition of 80% or higher) | 5 (% Mycerial growth inhibition of 80% or higher) | 5 (% Mycerial growth inhibition of 80% or higher) | 5 (% Mycerial growth inhibition of 80% or higher) | 5 (% Mycerial growth inhibition of 80% or higher) | 5 (% Mycerial growth inhibition of 80% or higher) | 5 (% Mycerial growth inhibition of 80% or higher) | 4 (% Mycerial growth inhibition of less than 80 to 60% or higher) | 5 (% Mycerial growth inhibition of 80% or higher) | 5 (% Mycerial growth inhibition of 80% or higher) | 5 (% Mycerial growth inhibition of 80% or higher) | 5 (% Mycerial growth inhibition of 80% or higher) | 5 (% Mycerial growth inhibition of 80% or higher) | Growth inhibition grade S.s ([10]; 1.25 mg/L): 5 (% Mycerial growth inhibition of 80% or higher); Growth inhibition grade S.s ([10]; 5 mg/L): 5 (% Mycerial growth inhibition of 80% or higher); Growth inhibition grade B.c ([11]; 1.25 mg/L): 5 (% Mycerial growth inhibition of 80% or higher); Growth inhibition grade B.c ([11]; 5 mg/L): 5 (% Mycerial growth inhibition of 80% or higher); Growth inhibition grade F.c ([12]; 1.25 mg/L): 5 (% Mycerial growth inhibition of 80% or higher); Growth inhibition grade F.c ([12]; 5 mg/L): 5 (% Mycerial growth inhibition of 80% or higher); Growth inhibition grade R. sec ([13]; 1.25 mg/L): 5 (% Mycerial growth inhibition of 80% or higher); Growth inhibition grade R. sec ([13]; 5 mg/L): 5 (% Mycerial growth inhibition of 80% or higher)
3 | COC[C@]1(CCl)CC[C@H](Cc2ccc(Cl)cc2)[C@]1(O)Cn1cncn1 (racemic) [Compound I-16b, (1RS,2RS,5RS)-5-(4-chlorobenzyl)-2-chloromethyl-2-methoxymethyl-1H-[1,2,4]triazole-1-ylmethylcyclopentanol] | – | – | – | – | – | – | – | – | – | – | – | – | – | – | – | – | 3 (% Mycerial growth inhibition of less than 60 to 40% or higher) | 5 (% Mycerial growth inhibition of 80% or higher) | 5 (% Mycerial growth inhibition of 80% or higher) | 5 (% Mycerial growth inhibition of 80% or higher) | –

From patent US9241488B2, “Azole derivative, method for producing azole derivative, and intermediate compound” (KUREHA CORPORATION, priority 2011, dated 2016)
